Tests used:
Experiment in all cases: Post-emergence herbicidal effect, greenhouse pot test
LOLRI = assay type: in vivo, Lolium rigidum; details: Lolium rigidum, 504 h, read-out: Post-emergence effect against LOLRI in %
How it was run: (§1)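 Weeds sown in sandy loam, greenhouse-grown 2–3 weeks, then sprayed at one-leaf stage with WP or EC formulations in water plus 0.5% additive at 600 l/ha. Rates 20 to 320 g/ha. Visual rating after about 3 weeks versus untreated controls (100% = plants dead, 0% = like control).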

ALOMY = assay type: in vivo, Alopecurus myosuroides; details: Alopecurus myosuroides, 504 h, visual rating about 3 weeks after treatment, read-out: Post-emergence effect against ALOMY
How it was run: as §1

MATIN = assay type: in vivo, Tripleurospermum inodorum; details: Tripleurospermum inodorum, 504 h, read-out: Post-emergence effect against MATIN in %
How it was run: as §1

ABUTH = assay type: in vivo, Abutilon theophrasti; details: visual rating about 3 weeks after treatment
How it was run: as §1

POLCO = assay type: in vivo, Fallopia convolvulus
How it was run: as §1

SETVI = assay type: in vivo, Setaria viridis
How it was run: as §1

KCHSC = assay type: in vivo
How it was run: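 Visual rating of activity against untreated plants (100% = plants died, 0% = no effect), done about 3 weeks after treatment. Compounds applied at 20–320 g/ha as aqueous spray (600 l/ha, 0.5% additive) from WP or EC formulations onto one-leaf-stage plants grown in sandy loam under greenhouse conditions.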

DIGSA = assay type: in vivo, Digitaria sanguinalis; details: Digitaria sanguinalis, 504 h, 320 g/ha, visual rating about 3 weeks after treatment, read-out: Post-emergence effect against DIGSA
How it was run: as §1

AVEFA = assay type: in vivo, Avena fatua; details: Avena fatua, 504 h, visual rating about 3 weeks after treatment, read-out: Post-emergence effect against AVEFA
How it was run: as §1

VIOTR = assay type: in vivo, Viola tricolor; details: Viola tricolor, 504 h, read-out: Post-emergence effect against VIOTR in %
How it was run: as §1

ECHCG = assay type: in vivo, Echinochloa crus-galli; details: Echinochloa crus-galli, 504 h
How it was run: as §1

PHBPU = assay type: in vivo, Ipomoea purpurea; details: Ipomoea purpurea, 504 h, read-out: Post-emergence effect against PHBPU in %
How it was run: as §1

AMARE = assay type: in vivo, Amaranthus retroflexus; details: Amaranthus retroflexus, 504 h, visual rating about 3 weeks after treatment, read-out: Post-emergence effect against AMARE
How it was run: as §1

VERPE = assay type: in vivo, Veronica persica; details: Veronica persica, 504 h, read-out: Post-emergence effect against VERPE in %
How it was run: as §1

Structure (SMILES): COC(=O)C(OC)Oc1nn(-c2ncccc2F)c(-c2cncc(F)c2)c1C1CC1 (centres unmarked) [Example I-73]
- pest or weed control at 80 g/ha (LOLRI; 80 g/ha): 90%
- pest or weed control at 320 g/ha (LOLRI; 320 g/ha): 90%
- pest or weed control at 80 g/ha (ALOMY; 80 g/ha): 80%
- pest or weed control at 320 g/ha (ALOMY; 320 g/ha): 90%
- pest or weed control at 80 g/ha (MATIN; 80 g/ha): 90%
- pest or weed control at 320 g/ha (MATIN; 320 g/ha): 90%
- Post-emergence effect against ABUTH (ABUTH; 20 g/ha): 80%
- pest or weed control at 80 g/ha (ABUTH; Abutilon theophrasti, 504 h, 80 g/ha, read-out: Post-emergence effect against ABUTH): 80%
- pest or weed control at 320 g/ha (ABUTH; Abutilon theophrasti, 504 h, 320 g/ha, read-out: Post-emergence effect against ABUTH): 90%
- Post-emergence effect against POLCO in % (POLCO; 20 g/ha): 80%
- pest or weed control at 80 g/ha (POLCO; Fallopia convolvulus, 504 h, 80 g/ha, read-out: Post-emergence effect against POLCO in %): 80%
- pest or weed control at 320 g/ha (POLCO; Fallopia convolvulus, 504 h, 320 g/ha, read-out: Post-emergence effect against POLCO in %): 90%
- Post-emergence effect against SETVI in % (SETVI; 20 g/ha): 80%
- pest or weed control at 80 g/ha (SETVI; Setaria viridis, 504 h, 80 g/ha, read-out: Post-emergence effect against SETVI in %): 90%
- pest or weed control at 320 g/ha (SETVI; Setaria viridis, 504 h, 320 g/ha, read-out: Post-emergence effect against SETVI in %): 90%
- Post-emergence effect against KCHSC in % (KCHSC; 20 g/ha): 80%
- pest or weed control at 80 g/ha (KCHSC; 504 h, 80 g/ha, read-out: Post-emergence effect against KCHSC in %): 90%
- pest or weed control at 320 g/ha (KCHSC; 504 h, 320 g/ha, read-out: Post-emergence effect against KCHSC in %): 90%
- pest or weed control at 320 g/ha (DIGSA): 80%
- pest or weed control at 80 g/ha (AVEFA; 80 g/ha): 90%
- pest or weed control at 320 g/ha (AVEFA; 320 g/ha): 90%
- pest or weed control at 20 g/ha (VIOTR; 20 g/ha): 90%
- pest or weed control at 80 g/ha (VIOTR; 80 g/ha): 90%
- pest or weed control at 320 g/ha (VIOTR; 320 g/ha): 90%
- pest or weed control at 20 g/ha (ECHCG; 20 g/ha, visual rating about 3 weeks after treatment, read-out: Post-emergence effect against ECHCG): 90%
- pest or weed control at 80 g/ha (ECHCG; 80 g/ha, read-out: Post-emergence effect against ECHCG in %): 90%
- pest or weed control at 320 g/ha (ECHCG; 320 g/ha, read-out: Post-emergence effect against ECHCG in %): 90%
- pest or weed control at 20 g/ha (PHBPU; 20 g/ha): 80%
- pest or weed control at 80 g/ha (PHBPU; 80 g/ha): 90%
- pest or weed control at 320 g/ha (PHBPU; 320 g/ha): 90%
- pest or weed control at 20 g/ha (AMARE; 20 g/ha): 80%
- pest or weed control at 80 g/ha (AMARE; 80 g/ha): 90%
- pest or weed control at 320 g/ha (AMARE; 320 g/ha): 90%
- pest or weed control at 80 g/ha (VERPE; 80 g/ha): 90%
- pest or weed control at 320 g/ha (VERPE; 320 g/ha): 90%

Source: patent US20240391862A1, “(1,4,5-TRISUBSTITUTED-1H-PYRAZOL-3-YL)OXY-2-ALKOXY ALKYL ACIDS AND THEIR DERIVATIVES, THEIR SALTS AND THEIR USE AS HERBICIDAL AGENTS” (Bayer AKtiengesellschaft, priority 2021, published 2024)
